Measurements reported in PMC5218480 (PLoS ONE, 2017).

Tested on: MV-4-11 cells
Test: Gene expression microarray analysis (Affymetrix PrimeView) and GSEA
Type: cell-based, human
Set-up: RFU PODN (11730768_x_at) / Fold change /veh PODN (11730768_x_at) / RFU LINC00158 (11744669_a_at) / Fold change /veh LINC00158 (11744669_a_at) / RFU DUSP10 (11751237_a_at) / Fold change /veh DUSP10 (11751237_a_at) / RFU ID3 (11757404_x_at) / Fold change /veh ID3 (11757404_x_at) / RFU PLEKHG5 (11737974_s_at) / Fold change /veh PLEKHG5 (11737974_s_at) / RFU LRRC4B (11730491_at) / Fold change /veh LRRC4B (11730491_at) / RFU GIMAP4 (11747438_a_at) / Fold change /veh GIMAP4 (11747438_a_at) / RFU KRT8 (11758183_x_at) / Fold change /veh KRT8 (11758183_x_at) / RFU CNN1 (11734310_a_at) / Fold change /veh CNN1 (11734310_a_at) / RFU VPS37D (11726825_at) / Fold change /veh VPS37D (11726825_at) / RFU C10orf10 (11716522_x_at) / Fold change /veh C10orf10 (11716522_x_at) / RFU KIR2DL2 /// KIR2DL4 /// KIR2DL5A /// KIR2DL5B /// KIR2DS1 /// KIR2DS2 /// KIR2DS3 /// KIR2DS4 /// KIR3DL3 /// KIR3DL3 /// KIR3DS1 (11738374_at) / Fold change /veh KIR2DL2 /// KIR2DL4 /// KIR2DL5A /// KIR2DL5B /// KIR2DS1 /// KIR2DS2 /// KIR2DS3 /// KIR2DS4 /// KIR3DL3 /// KIR3DL3 /// KIR3DS1 (11738374_at) / RFU C1QL1 (11718748_at) / Fold change /veh C1QL1 (11718748_at) / RFU TMPRSS4 (11747572_a_at) / Fold change /veh TMPRSS4 (11747572_a_at) / RFU HAMP (11756126_x_at) / Fold change /veh HAMP (11756126_x_at) / RFU RNFT2 (11725882_a_at) / Fold change /veh RNFT2 (11725882_a_at) / RFU NR4A2 (11747474_a_at) / Fold change /veh NR4A2 (11747474_a_at) / RFU ABCC12 (11746883_a_at) / Fold change /veh ABCC12 (11746883_a_at) / RFU TMEM136 (11760407_x_at) / Fold change /veh TMEM136 (11760407_x_at) / RFU CLDN22 /// WWC2 (11732394_at) / Fold change /veh CLDN22 /// WWC2 (11732394_at) / RFU HLA-DPB1 (11760878_x_at) / Fold change /veh HLA-DPB1 (11760878_x_at) / RFU SPINT1 (11716480_a_at) / Fold change /veh SPINT1 (11716480_a_at) / RFU GAP43 (11754022_s_at) / Fold change /veh GAP43 (11754022_s_at) / RFU A4GNT (11735810_at) / Fold change /veh A4GNT (11735810_at) / RFU PRB3 (11715151_x_at) / Fold change /veh PRB3 (11715151_x_at) / RFU TUBB4B (11761932_at) / Fold change /veh TUBB4B (11761932_at) / RFU CAPN14 (11732068_a_at) / Fold change /veh CAPN14 (11732068_a_at) / RFU TMCC2 (11721928_a_at) / Fold change /veh TMCC2 (11721928_a_at) / RFU IRGQ (11745062_a_at) / Fold change /veh IRGQ (11745062_a_at) / RFU FAM174B (11720279_a_at) / Fold change /veh FAM174B (11720279_a_at) / RFU TMPRSS4 (11748680_a_at) / Fold change /veh TMPRSS4 (11748680_a_at) / RFU FAM212B (11763350_a_at) / Fold change /veh FAM212B (11763350_a_at) / RFU PLEKHG5 (11743358_a_at) / Fold change /veh PLEKHG5 (11743358_a_at) / RFU ZSCAN30 (11745921_a_at) / Fold change /veh ZSCAN30 (11745921_a_at) / RFU CMKLR1 (11741424_a_at) / Fold change /veh CMKLR1 (11741424_a_at) / RFU LOC101060620 /// MAPK8IP1 (11723275_at) / Fold change /veh LOC101060620 /// MAPK8IP1 (11723275_at) / RFU SPTSSB (11747773_x_at) / Fold change /veh SPTSSB (11747773_x_at) / RFU PRSS12 (11739890_at) / Fold change /veh PRSS12 (11739890_at) / RFU BIN1 (11741810_x_at) / Fold change /veh BIN1 (11741810_x_at) / RFU WNT11 (11732464_a_at) / Fold change /veh WNT11 (11732464_a_at) / RFU C10orf10 (11716521_a_at) / Fold change /veh C10orf10 (11716521_a_at) / RFU C5orf56 (11738089_at) / Fold change /veh C5orf56 (11738089_at) / RFU CYB561 (11721691_x_at) / Fold change /veh CYB561 (11721691_x_at) / RFU ANKRD19P (11752326_a_at) / Fold change /veh ANKRD19P (11752326_a_at) / RFU OR2T12 /// OR2T33 /// OR2T8 (11738714_s_at) / Fold change /veh OR2T12 /// OR2T33 /// OR2T8 (11738714_s_at) / RFU VCAN (11748164_a_at) / Fold change /veh VCAN (11748164_a_at) / RFU JSRP1 (11732532_at) / Fold change /veh JSRP1 (11732532_at) / RFU KRTAP10-11 (11738290_x_at) / Fold change /veh KRTAP10-11 (11738290_x_at) / RFU MYO3A (11730013_a_at) / Fold change /veh MYO3A (11730013_a_at) / RFU EBF3 (11725865_a_at) / Fold change /veh EBF3 (11725865_a_at) / RFU CAMK2N1 (11719241_x_at) / Fold change /veh CAMK2N1 (11719241_x_at) / RFU C5orf56 (11738088_a_at) / Fold change /veh C5orf56 (11738088_a_at) / RFU OLFML3 (11715873_a_at) / Fold change /veh OLFML3 (11715873_a_at) / RFU LOC100653217 /// NTM (11731650_a_at) / Fold change /veh LOC100653217 /// NTM (11731650_a_at) / RFU MAPK11 (11762145_a_at) / Fold change /veh MAPK11 (11762145_a_at) / RFU FIZ1 (11724087_x_at) / Fold change /veh FIZ1 (11724087_x_at) / RFU OASL (11726364_x_at) / Fold change /veh OASL (11726364_x_at) / RFU SOX15 (11748057_x_at) / Fold change /veh SOX15 (11748057_x_at) / RFU CD79A (11719716_a_at) / Fold change /veh CD79A (11719716_a_at) / RFU HIST1H1D (11736915_at) / Fold change /veh HIST1H1D (11736915_at) / RFU CASKIN2 (11723855_a_at) / Fold change /veh CASKIN2 (11723855_a_at) / RFU LOC730098 (11760151_x_at) / Fold change /veh LOC730098 (11760151_x_at) / RFU OR4N2 (11742367_at) / Fold change /veh OR4N2 (11742367_at) / RFU PRRT2 (11749266_a_at) / Fold change /veh PRRT2 (11749266_a_at) / RFU SNX32 (11753110_a_at) / Fold change /veh SNX32 (11753110_a_at) / RFU CDHR5 (11726645_a_at) / Fold change /veh CDHR5 (11726645_a_at) / RFU RCAN1 (11760418_a_at) / Fold change /veh RCAN1 (11760418_a_at) / RFU FAM167A (11723789_a_at) / Fold change /veh FAM167A (11723789_a_at) / RFU FAM26E (11764081_at) / Fold change /veh FAM26E (11764081_at) / RFU ISYNA1 (11749810_s_at) / Fold change /veh ISYNA1 (11749810_s_at) / RFU ACY1 (11761880_at) / Fold change /veh ACY1 (11761880_at) / RFU 11764098_at / Fold change /veh 11764098_at / RFU SAMD14 (11745864_x_at) / Fold change /veh SAMD14 (11745864_x_at) / RFU NPB (11741838_a_at) / Fold change /veh NPB (11741838_a_at) / RFU TMPRSS6 (11731388_a_at) / Fold change /veh TMPRSS6 (11731388_a_at) / RFU KRTAP10-2 (11738614_at) / Fold change /veh KRTAP10-2 (11738614_at) / RFU ARHGAP8 /// PRR5-ARHGAP8 (11727945_x_at) / Fold change /veh ARHGAP8 /// PRR5-ARHGAP8 (11727945_x_at) / RFU KRTAP5-7 /// NADSYN1 (11734609_at) / Fold change /veh KRTAP5-7 /// NADSYN1 (11734609_at) / RFU RASL12 (11751679_a_at) / Fold change /veh RASL12 (11751679_a_at) / RFU CDKN2B (11736163_a_at) / Fold change /veh CDKN2B (11736163_a_at) / RFU PRF1 (11729649_at) / Fold change /veh PRF1 (11729649_at) / RFU, ZNF638 /// ZNF638-IT1 / Fold change vs veh, ZNF638 /// ZNF638-IT1 / RFU, PANK3 / Fold change vs veh, PANK3 / RFU, SH3YL1 / Fold change vs veh, SH3YL1 / RFU, ZEB2 / Fold change vs veh, ZEB2 / RFU, NRIP1 / Fold change vs veh, NRIP1 / RFU, PTTG1IP / Fold change vs veh, PTTG1IP / RFU, CAPN2 / Fold change vs veh, CAPN2 / RFU, MED14 / Fold change vs veh, MED14 / RFU, SNORA58 / Fold change vs veh, SNORA58 / RFU, C1orf63 / Fold change vs veh, C1orf63 / RFU, LRRFIP1 / Fold change vs veh, LRRFIP1 / RFU, NDUFAF7 / Fold change vs veh, NDUFAF7 / RFU, SLC12A2 / Fold change vs veh, SLC12A2 / RFU, IBTK / Fold change vs veh, IBTK / RFU, ESF1 / Fold change vs veh, ESF1 / Fold change vs veh, TMEM50B / RFU, TAOK1 / Fold change vs veh, TAOK1 / RFU, ACBD3 / Fold change vs veh, ACBD3 / RFU, TMA16 / Fold change vs veh, TMA16 / RFU, RWDD3 / Fold change vs veh, RWDD3 / RFU, BCAT1 / Fold change vs veh, BCAT1 / RFU, EDEM3 / Fold change vs veh, EDEM3 / RFU, TMEM33 / Fold change vs veh, TMEM33 / RFU, WDR75 / Fold change vs veh, WDR75 / RFU, AHCTF1 / Fold change vs veh, AHCTF1 / RFU, TFRC / Fold change vs veh, TFRC / RFU, ZDHHC17 / Fold change vs veh, ZDHHC17 / RFU, NOM1 / Fold change vs veh, NOM1 / RFU, ARL8B / Fold change vs veh, ARL8B / RFU, ZBTB11 / Fold change vs veh, ZBTB11 / RFU, TAMM41 / Fold change vs veh, TAMM41 / RFU, KIAA1704 /// LOC100996395 / Fold change vs veh, KIAA1704 /// LOC100996395 / RFU, ING1 / Fold change vs veh, ING1 / RFU, TRMT61B / Fold change vs veh, TRMT61B / RFU, FUBP3 / Fold change vs veh, FUBP3 / RFU, TP53 / Fold change vs veh, TP53 / RFU, TNKS2 / Fold change vs veh, TNKS2 / RFU, ZFP14 / Fold change vs veh, ZFP14 / RFU, ACTR2 / Fold change vs veh, ACTR2 / RFU, PPP3R1 / Fold change vs veh, PPP3R1 / RFU, PIK3R1 / Fold change vs veh, PIK3R1 / RFU, HNRNPA1 / Fold change vs veh, HNRNPA1 / RFU, RNF170 / Fold change vs veh, RNF170 / RFU, ZNF28 / Fold change vs veh, ZNF28 / RFU, RNGTT / Fold change vs veh, RNGTT / RFU, OGT / Fold change vs veh, OGT / RFU, BRD1 / Fold change vs veh, BRD1 / RFU, MARS / Fold change vs veh, MARS / RFU, ZNF655 / Fold change vs veh, ZNF655 / RFU, FAHD1 / Fold change vs veh, FAHD1 / RFU, BDP1 / Fold change vs veh, BDP1 / RFU, LRRCC1 / Fold change vs veh, LRRCC1 / RFU, ARID1A / Fold change vs veh, ARID1A / RFU, ZNF146 / Fold change vs veh, ZNF146 / RFU, ZNF330 / Fold change vs veh, ZNF330 / RFU, GPN3 / Fold change vs veh, GPN3 / RFU, C9orf123 / Fold change vs veh, C9orf123 / RFU, N4BP2L2 / Fold change vs veh, N4BP2L2 / RFU, ARFIP1 / Fold change vs veh, ARFIP1 / RFU, FAM179B / Fold change vs veh, FAM179B / RFU, BCL10 / Fold change vs veh, BCL10 / RFU, UHRF1BP1L / Fold change vs veh, UHRF1BP1L / RFU, BET1 / Fold change vs veh, BET1 / RFU, CNOT2 / Fold change vs veh, CNOT2 / RFU, ZNF268 / Fold change vs veh, ZNF268 / Fold change vs veh, ZNF507 / RFU, DGCR2 / Fold change vs veh, DGCR2 / RFU, WDSUB1 / Fold change vs veh, WDSUB1 / Fold change vs veh, HSP90B1 /// MIR3652 / RFU, ADSS / Fold change vs veh, ADSS / RFU, GK / Fold change vs veh, GK / RFU, ZNF148 / Fold change vs veh, ZNF148 / RFU, TAF9 / Fold change vs veh, TAF9 / RFU, SLC1A5 / Fold change vs veh, SLC1A5 / RFU, SLMO2 / Fold change vs veh, SLMO2 / RFU, ABCC4 / Fold change vs veh, ABCC4 / RFU, LOC101060439 /// RAP1B / Fold change vs veh, LOC101060439 /// RAP1B / RFU, RFX7 / Fold change vs veh, RFX7 / RFU, GTPBP10 / Fold change vs veh, GTPBP10 / RFU, CNEP1R1 / Fold change vs veh, CNEP1R1 / RFU, BIVM-ERCC5 /// ERCC5 / Fold change vs veh, BIVM-ERCC5 /// ERCC5 / RFU, ILF3 / Fold change vs veh, ILF3 / RFU 11762660_at / Fold change /veh 11762660_at / RFU VCAN (11757783_s_at) / Fold change /veh VCAN (11757783_s_at) / RFU DDX43 (11728927_at) / Fold change /veh DDX43 (11728927_at) / RFU KRT8 (11758188_x_at) / Fold change /veh KRT8 (11758188_x_at) / RFU NKD1 (11759106_at) / Fold change /veh NKD1 (11759106_at) / RFU SRD5A1 (11742802_a_at) / Fold change /veh SRD5A1 (11742802_a_at) / RFU TPSAB1 /// TPSB2 (11721975_s_at) / Fold change /veh TPSAB1 /// TPSB2 (11721975_s_at) / RFU GSTM3 (11746129_a_at) / Fold change /veh GSTM3 (11746129_a_at) / RFU IL23R (11737362_x_at) / Fold change /veh IL23R (11737362_x_at) / RFU TMEM51 (11727254_a_at) / Fold change /veh TMEM51 (11727254_a_at) / RFU PIWIL2 (11732686_x_at) / Fold change /veh PIWIL2 (11732686_x_at) / RFU ORM1 (11744905_x_at) / Fold change /veh ORM1 (11744905_x_at) / RFU CCDC152 (11743942_at) / Fold change /veh CCDC152 (11743942_at) / RFU ECM1 (11717891_a_at) / Fold change /veh ECM1 (11717891_a_at) / RFU IL23R (11748794_a_at) / Fold change /veh IL23R (11748794_a_at) / RFU TNFAIP8L3 (11732012_x_at) / Fold change /veh TNFAIP8L3 (11732012_x_at) / RFU MBOAT4 (11741988_at) / Fold change /veh MBOAT4 (11741988_at) / RFU 11764193_at / Fold change /veh 11764193_at / RFU TMEM53 (11763286_at) / Fold change /veh TMEM53 (11763286_at) / RFU MAGEB2 (11727129_at) / Fold change /veh MAGEB2 (11727129_at) / RFU TMEM200A (11744735_a_at) / Fold change /veh TMEM200A (11744735_a_at) / RFU CCDC152 (11751479_a_at) / Fold change /veh CCDC152 (11751479_a_at) / RFU FAM211A (11726209_a_at) / Fold change /veh FAM211A (11726209_a_at) / RFU RGS16 (11746705_a_at) / Fold change /veh RGS16 (11746705_a_at) / RFU VCAN (11755009_s_at) / Fold change /veh VCAN (11755009_s_at) / RFU RHOB (11743442_s_at) / Fold change /veh RHOB (11743442_s_at) / RFU RGS16 (11720943_a_at) / Fold change /veh RGS16 (11720943_a_at) / RFU RGS16 (11720944_at) / Fold change /veh RGS16 (11720944_at) / RFU, VPS4B / Fold change vs veh, VPS4B / RFU, CREB1 / Fold change vs veh, CREB1 / RFU, DNAJC13 / Fold change vs veh, DNAJC13 / RFU, GNAQ / Fold change vs veh, GNAQ / RFU, CDK5R1 / Fold change vs veh, CDK5R1 / RFU, ZRANB3 / Fold change vs veh, ZRANB3 / RFU, CUL4A / Fold change vs veh, CUL4A / RFU, CCNY / Fold change vs veh, CCNY / RFU, UFL1 / Fold change vs veh, UFL1 / RFU, COG3 / Fold change vs veh, COG3 / RFU, DIAPH2 / Fold change vs veh, DIAPH2 / RFU, SKA2 / Fold change vs veh, SKA2 / RFU, AFF3 / Fold change vs veh, AFF3 / RFU, LMF1 / Fold change vs veh, LMF1 / RFU, IPO11 / Fold change vs veh, IPO11 / RFU, DFFB / Fold change vs veh, DFFB / RFU, FOXP1 / Fold change vs veh, FOXP1 / RFU, CARD8 / Fold change vs veh, CARD8 / RFU, STRN3 / Fold change vs veh, STRN3 / RFU, ADK / Fold change vs veh, ADK / RFU, RASSF2 / Fold change vs veh, RASSF2 / RFU, WIPF1 / Fold change vs veh, WIPF1 / RFU, LARP1B / Fold change vs veh, LARP1B / RFU, RASA1 / Fold change vs veh, RASA1 / RFU, RB1 / Fold change vs veh, RB1 / RFU, PPFIA1 / Fold change vs veh, PPFIA1 / RFU, MAT2A / Fold change vs veh, MAT2A / RFU, CCT5 / Fold change vs veh, CCT5 / RFU, WDR92 / Fold change vs veh, WDR92 / RFU, CUX1 / Fold change vs veh, CUX1 / RFU, TTC7A / Fold change vs veh, TTC7A / RFU, TMEM135 / Fold change vs veh, TMEM135 / RFU, DEPTOR / Fold change vs veh, DEPTOR / RFU, CPM / Fold change vs veh, CPM / RFU, DNAJB6 / Fold change vs veh, DNAJB6 / RFU, CACNA2D3 / Fold change vs veh, CACNA2D3 / RFU, DTX4 / Fold change vs veh, DTX4 / RFU, TFCP2 / Fold change vs veh, TFCP2 / RFU, GMCL1 /// GMCL1P1 / Fold change vs veh, GMCL1 /// GMCL1P1 / RFU, AEBP2 / Fold change vs veh, AEBP2 / RFU, SNHG1 /// SNORD22 /// SNORD25 /// SNORD26 /// SNORD27 /// SNORD28 /// SNORD29 /// SNORD31 / Fold change vs veh, SNHG1 /// SNORD22 /// SNORD25 /// SNORD26 /// SNORD27 /// SNORD28 /// SNORD29 /// SNORD31 / Fold change (Aza/veh), C12orf56 (ProbeSet 11735607_a_at) / Fold change (ACY-1035/veh), C12orf56 (ProbeSet 11735607_a_at) / Fold change (Aza/veh), FGFR1OP (ProbeSet 11751329_s_at) / Fold change (ACY-1035/veh), FGFR1OP (ProbeSet 11751329_s_at) / Fold change (Aza/veh), VPS36 (ProbeSet 11739960_a_at) / Fold change (ACY-1035/veh), VPS36 (ProbeSet 11739960_a_at) / RFU SYPL1 (11715823_x_at) / Fold change /veh SYPL1 (11715823_x_at) / RFU IGFBP7 (11715501_s_at) / Fold change /veh IGFBP7 (11715501_s_at) / RFU REEP3 (11722064_at) / Fold change /veh REEP3 (11722064_at) / RFU IGLL1 (11728026_x_at) / Fold change /veh IGLL1 (11728026_x_at): dose or concentration left out as unconfirmed
Settings: ProbeSet 11755425_a_at; LIST B

Nc1ncn([C@@H]2O[C@H](CO)[C@@H](O)[C@H]2O)c(=O)n1 [azacitidine]
RFU, FAM179B: 66.28 RFU
